Data taken from patent publication US9044142B2, “Surgical optical systems for detecting brain tumors” (Carl Zeiss Meditec AG, priority 2010, dated 2015).

What was measured:
[1] = system: GL261-luc glioma cells; assay: Intraoperative NIR fluorescence macroscopy of ICG in GL261-luc glioma mouse model; type: in vivo
Excerpt: (§1) The GL261 cell line was obtained from the Division of Cancer Treatment and Diagnosis (DCTD) of the National Cancer Institute (NCl), Frederick, Md. […] The morphological, biochemical and growth characteristics of the GL261 mouse brain tumor model have been described elsewhere (see, e.g., M. Candolfi et al., J Neurooncol 85, 133 (November, 2007) and T. Szatmari et al., Cancer Sci 97, 546 (June, 2006)). To facilitate a quantitative measurement of the tumor growth rate, GL261 cells were made bioluminescent using the Lentiphos™ HT System (Clontech Laboratories, Inc., Mountain View, Calif.) with the Lenti-X™ HT Packaging Mix (Clontech Laboratories, Inc.) and the FUW-GL plasmid (a generous gift from the laboratory of J. B. Rubin, MD, PhD). The resulting GL261-luc cells were grown in Dulbecco's modified eagle's medium (DMEM, Invitrogen, Carlsbad, Calif.) supplemented with 10% tetracycline-free fetal calf serum (Clontech Laboratories, Inc) at 37° C. with 5% CO2. Cultured cells were harvested by trypsinization, washed once in phosphate-buffered saline (Invitrogen, Carlsbad, Calif.), and resuspended in DMEM without serum at a concentration of 1×10^7 cells/mL.
Animals were anesthetized by intraperitoneal injection of a mixture of 10 mg/kg xylazine and 80 mg/kg ketamine (Wyeth, Madison, N.J.). A 10-mm incision was made starting between the animal's eyes, exposing the bregma. […]
This study was conducted in two main phases. The purpose of the first phase was to validate the use of ICG fluorescence in both intraoperative NIR macroscopic and miniaturized confocal endomicroscopic techniques for the identification of brain tumors in the mouse model. […] Several intraoperative fluorescence macroscopic video loops, confocal images, and histological specimens were collected and analyzed from each mouse. […] Two cohorts of animals were used in the second phase: (1) six mice were used for intraoperative fluorescence macroscopy and (2) six mice were used for intraoperative confocal endomicroscopy. […]

[2] = cited from earlier work
[3] = humans; cited from earlier work
[4] = system: GL261-luc glioma cells; assay: Intraoperative confocal endomicroscopy of ICG distribution in GL261-luc glioma mouse model; type: in vivo; conditions: 0.4 mg/kg intravenously, mice
Description: Thirty mice implanted with glioblastoma cells underwent craniectomies for exposure of tumors 14 days implantation. Tumors were clearly visible macroscopically and extended from cortical surface to deep basal brain structures. ICG was then administered using 0.4 mg/kg, equivalent to a standard single dose for humans (see, e.g., I. Roberts et al., Lancet 342, (1993)). […] Other regions presented a complex mixture of these patterns, with mostly normal-appearing brain punctuated by large pleomorphic cells consistent with an infiltrative margin or satellite tumor cell clusters surrounded by brain tissue. Importantly, patterns consistent with tumor morphology were also seen in brain tissue neighboring the tumor that appeared macroscopically normal as viewed via the surgical microscope. Critically, individual tumor cells within brain tissue could be identified within 475×475 μm field of view and a definitive tumor border delimited (FIGS. 2A-2D).
as §1
Animals were anesthetized by intraperitoneal injection of a mixture of 10 mg/kg xylazine and 80 mg/kg ketamine (Wyeth, Madison, N.J.). A 10-mm incision was made starting between the animal's eyes, exposing the bregma. A bur hole was made 0.1 mm posterior to the bregma and 2.3 mm right of the midline using a small animal stereotactic headframe (Model 900, David Kopf Instruments, Tujunga, Calif.). […]
This study was conducted in two main phases. The purpose of the first phase was to validate the use of ICG fluorescence in both intraoperative NIR macroscopic and miniaturized confocal endomicroscopic techniques for the identification of brain tumors in the mouse model. […]

SMILES: CC1(C)C(/C=C/C=C/C=C/C=C2\N(CCCCS(=O)(=O)O)c3ccc4ccccc4c3C2(C)C)=[N+](CCCCS(=O)(=O)[O-])c2ccc3ccccc3c21 [ICG, Indocyanine green]
- intensity of macroscopic fluorescence in the central region of tumor ([1]; 15 minutes after injection versus one minute): increased
- macroscopic tumor visibility with NIR light ([1]; after ICG injection, tumor 14 days after implantation, mice): macroscopically visible
- macroscopic ICG fluorescence in vessels ([1]; immediately after intravenous injection): could be observed in major vessels
- fraction of originally injected volume detectable in the blood ([2]; after 10 minutes): only a small fraction
- binding to globulins, preferentially to α1-lipoproteins ([2]; after intravenous injection): almost completely
- main source of clearance ([2]; in vivo): hepatic elimination
- metabolism in the body ([2]; in vivo): not metabolized
- toxicity [3]: one of the least toxic substances ever administered to humans
- ICG distribution in normal-appearing brain distant from the tumor (confocal endomicroscopy) [4]: predominantly intravascular ICG distribution
- ICG distribution within obvious tumor tissue (confocal endomicroscopy) [4]: extravascular ICG concentrated in clusters of cellular structures
- ICG fluorescence of tumor cells (confocal endomicroscopy) ([4]; fifteen minutes after ICG injection): entire tumor mass was saturated with ICG
- ICG fluorescence of tumor cells (confocal endomicroscopy) ([4]; immediately after ICG injection): fluorescence was seen only in a few clusters of tumor cells
